# Experimental data: patent US20190031665A1, “DERIVATIVES OF PYRROLOIMIDAZOLE OR ANALOGUES THEREOF WHICH ARE USEFUL FOR THE TREATMENT OF INTER ALIA CANCER” (EMCURE PHARMACEUTICALS LIMITED, priority 2016, published 2019)
# Columns and labels:
# [1] = molecular target: T1, human tryptophan 2,3-dioxygenase (hTDO) (Homo sapiens, UniProt P48775); experiment: In-vitro human tryptophan 2,3-dioxygenase (TDO) enzyme assay; assay type: biochemical; conditions: for inhibition at 1 µM: hTDO enzyme at 1.0 μM concentration; for inhibition at 10 µM: hTDO enzyme at 10.0 μM concentration
# T1 construct: His tag (N); purchased BPS Bioscience, San Diego, Calif., USA; host or cells: E. coli
# T1 sequence (P48775 whole entry): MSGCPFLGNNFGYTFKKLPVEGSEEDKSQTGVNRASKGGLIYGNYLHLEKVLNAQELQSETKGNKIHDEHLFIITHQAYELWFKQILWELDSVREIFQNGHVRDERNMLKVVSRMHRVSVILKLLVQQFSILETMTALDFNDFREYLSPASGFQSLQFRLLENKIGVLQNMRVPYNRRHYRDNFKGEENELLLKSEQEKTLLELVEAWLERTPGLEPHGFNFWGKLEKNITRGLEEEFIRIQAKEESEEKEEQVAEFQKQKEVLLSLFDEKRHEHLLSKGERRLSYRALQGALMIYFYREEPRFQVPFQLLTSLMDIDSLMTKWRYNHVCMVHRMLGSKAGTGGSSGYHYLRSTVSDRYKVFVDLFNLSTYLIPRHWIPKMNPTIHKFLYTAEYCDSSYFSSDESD
# Protocol: (§1) In the in-vitro human tryptophan 2,3-dioxygenase (hTDO) enzyme assay for screening inhibitor compounds, hTDO with an N-terminal histidine tag expressed and purified from E. coli (BPS Bioscience, San Diego, Calif., USA) was used. All other materials were procured from Sigma-Aldrich, St. Louis, Mo., USA.
# The assay monitoring method for the conversion of L-tryptophan to N-formylkynurenine by hTDO was carried out as follows. hTDO (125 ng) was incubated in the presence of 200 μM L-tryptophan, 100 mM sodium phosphate buffer (pH 7.0), 0.01% Tween-20 and 100 μM ascorbic acid at about 37° C. for about 60 minutes. The reaction was terminated with 200 mM piperidine (PIP) and further incubated at about 65° C. for about 20 minutes to convert N-formylkynurenine (NFK) to NFK-PIP. The reaction mixture was then incubated at room temperature for about 75 minutes. The fluorescence intensity was read in a fluorescence microplate reader at an excitation wavelength of 400 nm and emission wavelength of 500 nm. Percent inhibition at each concentration of test compounds was determined by estimating the decrease in NFK-PIP. Data were analyzed using nonlinear regression to generate IC50 values using Graph Pad Prism® 6.
# [2] = molecular target: T2, human indoleamine 2,3-dioxygenase 1 (hIDO1) (Homo sapiens, UniProt P14902); experiment: In-vitro human indoleamine 2,3-dioxygenase 1 (IDO1) enzyme assay; assay type: biochemical; conditions: for IC50: hIDO1 enzyme; for inhibition at 1 µM: hIDO1 enzyme at 1.0 μM concentration; for inhibition at 10 µM: hIDO1 enzyme at 10.0 μM concentration
# T2 construct: His tag (N); purchased BPS Bioscience, San Diego, Calif., USA; host or cells: E. coli
# T2 sequence (P14902 whole entry): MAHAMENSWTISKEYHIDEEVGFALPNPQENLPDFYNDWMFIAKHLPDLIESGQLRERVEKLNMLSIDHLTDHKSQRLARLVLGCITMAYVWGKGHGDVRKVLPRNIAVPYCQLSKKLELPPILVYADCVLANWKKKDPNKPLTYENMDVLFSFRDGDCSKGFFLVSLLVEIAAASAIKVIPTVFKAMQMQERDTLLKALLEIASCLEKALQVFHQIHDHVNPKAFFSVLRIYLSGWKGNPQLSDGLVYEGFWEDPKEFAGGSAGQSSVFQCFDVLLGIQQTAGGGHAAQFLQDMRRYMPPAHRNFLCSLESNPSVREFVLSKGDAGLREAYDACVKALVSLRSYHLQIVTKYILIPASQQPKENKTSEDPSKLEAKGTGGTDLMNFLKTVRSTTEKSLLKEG
# Protocol: as §1, with “In-vitro human indoleamine 2,3-dioxygenase 1 (IDO1) enzyme assay: In” for “In”, “indoleamine” for “tryptophan”, “1 (hIDO1)” for “(hTDO)”, “hIDO1” for “hTDO”
# The assay method for monitoring the conversion of L-tryptophan to N-formylkynurenine by hlDO1 was carried out as follows. hlDO1 (50 ng) was incubated with tryptophan (80 μM) in the presence of ascorbic acid (10 mM), methylene blue (10 μM), catalase (100 μg/ml) and 0.01% Tween-20 in sodium phosphate buffer (50 mM; pH 6.5) at 37° C. for 60 min. The reaction was terminated with 200 mM piperidine (PIP) and further incubated at about 65° C. for about 20 minutes to convert N-formylkynurenine (NFK) to NFK-PIP. The reaction mixture was then incubated at room temperature for about 1 hour. The fluorescence intensity was read in a fluorescence microplate reader at an excitation wavelength of 400 nm and emission wavelength of 500 nm. Percent inhibition at each concentration of test compounds was determined by estimating the decrease in NFK-PIP. Data were analyzed using nonlinear regression to generate IC50 values using Graph Pad Prism® 6.
SMILES,inhibition at 1 µM [1],inhibition at 10 µM [1],IC50 [2],inhibition at 1 µM [2],inhibition at 10 µM [2]
CCOC(=O)CC1C(c2ccccc2)=C(C)c2cncn21 (stereo not shown) [Example 22],,≥ 50%,,≤ 50%,≥ 50%
"CC1=C(c2ccccc2)C(CC(=O)c2ccc3ccccc3c2)n2cncc21 (stereo not shown) [Example 25, 2-(7-Methyl-6-phenyl-5H-pyrrolo[1,2-c]imidazol-5-yl)-1-naphthalen-2-yl-ethanone]",≥ 50%,≥ 50%,< 500 nM,≥ 50%,≥ 50%
"CC1=C(c2ccccc2)C(CC(=O)C2CC2)n2cncc21 (stereo not shown) [Example 26, 1-Cyclopropyl-2-(7-methyl-6-phenyl-5H-pyrrolo[1,2-c]imidazol-5-yl)-ethanone]",≥ 50%,≥ 50%,,≤ 50%,≥ 50%
"COc1ccccc1C(=O)CC1C(c2ccccc2)=C(C)c2cncn21 (stereo not shown) [Example 32, 1-(2-methoxyphenyl)-2-(7-methyl-6-phenyl-5H-pyrrolo[1,2-c]imidazol-5-yl)ethan-1-one]",,≥ 50%,,≤ 50%,≤ 50%
"CC1=C(c2ccccc2)C(CC(O)c2ccc(F)cc2)n2cncc21 (stereo not shown) [Example 35, 1-(4-fluorophenyl)-2-(7-methyl-6-phenyl-5H-pyrrolo[1,2-c]imidazol-5-yl)ethan-1-ol]",≥ 50%,,,≤ 50%,≥ 50%
"CC1=C(c2ccccc2)C(CC(=O)c2cccc3ccccc23)n2cncc21 (stereo not shown) [Example 40, 2-(7-methyl-6-phenyl-5H-pyrrolo[1,2-c]imidazol-5-yl)-1-(naphthalen-1-yl)ethan-1-one]",≥ 50%,,,≥ 50%,≥ 50%
"CC1=C(c2ccccc2)C(CC(=O)c2ccc(-c3ccccc3)cc2)n2cncc21 (stereo not shown) [Example 41, 1-([1,1′-biphenyl]-4-yl)-2-(7-methyl-6-phenyl-5H-pyrrolo[1,2-c]imidazol-5-yl)ethan-1-one]",≥ 50%,,< 500 nM,≥ 50%,≥ 50%
"CC1=C(c2ccccc2)C(CC(O)c2ccc(-c3ccccc3)cc2)n2cncc21 (stereo not shown) [Example 44, 1-([1,1′-biphenyl]-4-yl)-2-(7-methyl-6-phenyl-5H-pyrrolo[1,2-c]imidazol-5-yl)ethan-1-ol]",≥ 50%,,,≥ 50%,≥ 50%
"CC1=C(c2ccccc2)C(CC(=O)c2ccc3c(c2)CCCC3)n2cncc21 (stereo not shown) [Example 47, 2-(7-methyl-6-phenyl-5H-pyrrolo[1,2-c]imidazol-5-yl)-1-(5,6,7,8-tetrahydronaphthalen-2-yl)ethan-1-one]",≥ 50%,,,≥ 50%,≥ 50%
"CC1=C(c2ccccc2)C(CC(=O)c2ccc(Oc3ccccc3)cc2)n2cncc21 (stereo not shown) [Example 48, 2-(7-methyl-6-phenyl-5H-pyrrolo[1,2-c]imidazol-5-yl)-1-(4-phenoxyphenyl)ethan-1-one]",≥ 50%,,> 500 nM,≥ 50%,≥ 50%
"CC1=C(c2ccccc2)C(CC(=O)c2ccc(N3CCOCC3)cc2)n2cncc21 (stereo not shown) [Example 49, 2-(7-methyl-6-phenyl-5H-pyrrolo[1,2-c]imidazol-5-yl)-1-(4-morpholinophenyl)ethan-1-one]",≥ 50%,,,≤ 50%,≥ 50%

# Second part, the compound after the results:
inhibition at 1 µM [1],inhibition at 10 µM [1],IC50 [2],inhibition at 1 µM [2],inhibition at 10 µM [2],SMILES
≥ 50%,≥ 50%,> 500 nM,≥ 50%,≥ 50%,"CC1=C(c2ccccc2)C(CC(=O)c2cccc(F)c2)n2cncc21 (stereo not shown) [Example 20, 1-(3-Fluoro-phenyl)-2-(7-methyl-6-phenyl-5H-pyrrolo[1,2-c]imidazol-5-yl)-ethanone]"
≥ 50%,≥ 50%,,≤ 50%,≥ 50%,"COC(=O)c1cccc(C(=O)CC2C(c3ccccc3)=C(C)c3cncn32)c1 (stereo not shown) [Example 23, 3-[2-(7-Methyl-6-phenyl-5H-pyrrolo[1,2-c]imidazol-5-yl)-acetyl]-benzoic acid methyl ester]"
≥ 50%,≥ 50%,,≤ 50%,≥ 50%,"CC1=C(c2ccccc2)C(CC(=O)c2ccc(C(=O)O)cc2)n2cncc21 (stereo not shown) [Example 24, 4-[2-(7-Methyl-6-phenyl-5H-pyrrolo[1,2-c]imidazol-5-yl)-acetyl]-benzoic acid]"
≥ 50%,≥ 50%,,≤ 50%,≥ 50%,"CC1=C(c2ccccc2)C(CC(=O)c2ccc(C)cc2)n2cncc21 (stereo not shown) [Example 27, 2-(7-Methyl-6-phenyl-5H-pyrrolo[1,2-c]imidazol-5-yl)-1-p-tolyl-ethanone]"
≥ 50%,≥ 50%,< 500 nM,≥ 50%,≥ 50%,"CC1=C(c2ccccc2)C(CC(=O)c2ccc3c(c2)OCO3)n2cncc21 (stereo not shown) [Example 28, 1-Benzo[1,3]dioxol-5-yl-2-(7-methyl-6-phenyl-5H-pyrrolo[1,2-c]imidazol-5-yl)-ethanone]"
≥ 50%,≥ 50%,< 500 nM,≥ 50%,≥ 50%,"CC1=C(c2ccccc2)C(CC(=O)c2cccc(C(F)(F)F)c2)n2cncc21 (stereo not shown) [Example 29, 2-(7-Methyl-6-phenyl-5H-pyrrolo[1,2-c]imidazol-5-yl)-1-(3-trifluoromethyl-phenyl)-ethanone]"
,≥ 50%,,≤ 50%,≥ 50%,"COc1cccc(C(=O)CC2C(c3ccccc3)=C(C)c3cncn32)c1 (stereo not shown) [Example 33, 1-(3-Methoxy-phenyl)-2-(7-methyl-6-phenyl-5H-pyrrolo[1,2-c]imidazol-5-yl)-ethanone]"
≥ 50%,≥ 50%,,≥ 50%,≥ 50%,"CC1=C(c2ccccc2)C(CC(=O)c2ccc(F)cc2)n2cncc21 (stereo not shown) [Example 34, 1-(4-fluorophenyl)-2-(7-methyl-6-phenyl-5H-pyrrolo[1,2-c]imidazol-5-yl)ethan-1-one]"
≥ 50%,≥ 50%,,≥ 50%,≥ 50%,"CC1=C(c2ccccc2)C(CC(=O)c2cc(F)ccc2F)n2cncc21 (stereo not shown) [Example 36, 1-(2,5-difluorophenyl)-2-(7-methyl-6-phenyl-5H-pyrrolo[1,2-c]imidazol-5-yl)ethan-1-one]"
≥ 50%,,< 500 nM,≥ 50%,≥ 50%,"COc1ccc(C(=O)CC2C(c3ccccc3)=C(C)c3cncn32)cc1 (stereo not shown) [Example 37, 1-(4-methoxyphenyl)-2-(7-methyl-6-phenyl-5H-pyrrolo[1,2-c]imidazol-5-yl)ethan-1-one]"
≥ 50%,,< 500 nM,≥ 50%,≥ 50%,"CC1=C(c2ccccc2)C(CC(=O)c2ccc(Cl)cc2)n2cncc21 (stereo not shown) [Example 38, 1-(4-chlorophenyl)-2-(7-methyl-6-phenyl-5H-pyrrolo[1,2-c]imidazol-5-yl)ethan-1-one]"
≥ 50%,,< 500 nM,≥ 50%,≥ 50%,"CC1=C(c2ccccc2)C(CC(=O)c2ccc(F)c(Cl)c2)n2cncc21 (stereo not shown) [Example 39, 1-(3-chloro-4-fluorophenyl)-2-(7-methyl-6-phenyl-5H-pyrrolo[1,2-c]imidazol-5-yl)ethan-1-one]"
≥ 50%,,,≤ 50%,≥ 50%,"CC1=C(c2ccccc2)C(CC(=O)c2ccsc2)n2cncc21 (stereo not shown) [Example 45, 2-(7-methyl-6-phenyl-5H-pyrrolo[1,2-c]imidazol-5-yl)-1-(thiophen-3-yl)ethan-1-one]"
≥ 50%,,,≤ 50%,≥ 50%,"CC1=C(c2ccccc2)C(CC(=O)c2ccc(N(C)C)cc2)n2cncc21 (stereo not shown) [Example 46, 1-(4-(dimethylamino)phenyl)-2-(7-methyl-6-phenyl-5H-pyrrolo[1,2-c]imidazol-5-yl)ethan-1-one]"
